Laboratory results reported in ChEMBL document CHEMBL5233239, “Matrix metalloproteinase-9 (MMP-9) and its inhibitors in cancer: A minireview” (Eur J Med Chem, 2020).
Each block holds one compound with its values, some of them ahead of it.

Key:
[1] = molecular target: T1, Matrix metalloproteinase-9 (Homo sapiens, UniProt P14780); assay: Inhibition of MMP-9 (unknown origin)
Collagenase 3 = Collagenase 3 (Homo sapiens, UniProt P45452)
Description: Inhibition of MMP-13 (unknown origin)

[2] = molecular target: T2, 72 kDa type IV collagenase (Homo sapiens, UniProt P08253); assay: Inhibition of human MMP2 incubated for 1 hrs followed by chromogenic substrate addition and measured after 30 mins by microplate photometer analysis
T2 sequence (P08253 whole entry): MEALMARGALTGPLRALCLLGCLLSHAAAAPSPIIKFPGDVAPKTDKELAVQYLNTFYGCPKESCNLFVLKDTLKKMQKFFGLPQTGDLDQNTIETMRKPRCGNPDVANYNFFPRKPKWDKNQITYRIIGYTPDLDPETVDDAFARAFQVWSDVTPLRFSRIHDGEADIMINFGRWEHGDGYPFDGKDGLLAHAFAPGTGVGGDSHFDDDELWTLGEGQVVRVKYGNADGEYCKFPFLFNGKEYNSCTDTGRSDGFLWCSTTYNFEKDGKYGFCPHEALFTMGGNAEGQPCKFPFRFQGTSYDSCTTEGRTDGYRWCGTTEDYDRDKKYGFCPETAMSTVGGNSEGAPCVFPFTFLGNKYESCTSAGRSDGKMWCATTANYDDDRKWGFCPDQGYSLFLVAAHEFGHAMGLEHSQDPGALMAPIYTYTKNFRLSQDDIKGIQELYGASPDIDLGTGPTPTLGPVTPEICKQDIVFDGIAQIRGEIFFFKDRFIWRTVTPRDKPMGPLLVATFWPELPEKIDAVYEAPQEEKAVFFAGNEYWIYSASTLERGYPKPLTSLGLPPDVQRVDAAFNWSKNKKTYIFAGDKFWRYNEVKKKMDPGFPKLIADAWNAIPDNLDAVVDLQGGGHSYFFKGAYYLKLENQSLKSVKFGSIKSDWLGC

[3] = molecular target: T1, Matrix metalloproteinase-9; assay: Inhibition of human MMP9 incubated for 1 hrs followed by chromogenic substrate addition and measured after 30 mins by microplate photometer analysis
Matrilysin [4] = molecular target: T3, Matrilysin (Homo sapiens, UniProt P09237); assay: Inhibition of recombinant human MMP7 using […] as substrate incubated for 20 to 30 mins by fluorescence microplate reader analysis
T3 sequence (P09237 whole entry): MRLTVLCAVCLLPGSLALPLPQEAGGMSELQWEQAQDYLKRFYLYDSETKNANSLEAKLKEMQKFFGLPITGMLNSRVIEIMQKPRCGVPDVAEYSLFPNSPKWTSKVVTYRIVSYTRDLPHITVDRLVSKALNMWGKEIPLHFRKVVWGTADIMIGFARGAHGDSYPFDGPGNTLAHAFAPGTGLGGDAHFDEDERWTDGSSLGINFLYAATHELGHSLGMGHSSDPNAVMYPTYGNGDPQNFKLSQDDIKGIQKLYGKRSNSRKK

Stromelysin-1 = Stromelysin-1 (Homo sapiens, UniProt P08254); assay: Inhibition of recombinant human MMP3 expressed in Escherichia coli BL21 (DE3) using [3H]transferrin as substrate incubated for 3 hrs by scintillation counter analysis
Sequence of Stromelysin-1 (P08254 whole entry): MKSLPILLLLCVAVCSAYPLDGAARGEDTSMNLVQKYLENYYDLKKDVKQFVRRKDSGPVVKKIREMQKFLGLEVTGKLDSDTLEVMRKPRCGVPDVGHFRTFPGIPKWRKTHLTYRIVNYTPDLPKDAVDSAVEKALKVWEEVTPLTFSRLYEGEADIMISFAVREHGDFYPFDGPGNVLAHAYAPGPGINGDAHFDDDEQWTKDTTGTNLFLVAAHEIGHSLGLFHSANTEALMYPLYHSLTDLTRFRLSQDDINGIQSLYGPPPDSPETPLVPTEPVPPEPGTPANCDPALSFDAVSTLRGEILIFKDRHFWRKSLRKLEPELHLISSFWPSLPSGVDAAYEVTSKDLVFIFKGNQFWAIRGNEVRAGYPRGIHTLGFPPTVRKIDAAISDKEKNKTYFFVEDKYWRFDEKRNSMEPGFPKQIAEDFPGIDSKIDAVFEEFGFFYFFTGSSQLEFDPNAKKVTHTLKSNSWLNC

[5] = molecular target: T2, 72 kDa type IV collagenase; assay: Inhibition of recombinant human full length MMP2 using […] as substrate incubated for 20 to 30 mins by fluorescence microplate reader analysis
[6] = molecular target: T1, Matrix metalloproteinase-9; assay: Inhibition of recombinant human MMP9 using […] as substrate incubated for 20 to 30 mins by fluorescence microplate reader analysis
Neutrophil collagenase [7] = molecular target: T4, Neutrophil collagenase (Homo sapiens, UniProt P22894); assay: Inhibition of recombinant human MMP8 using […] as substrate incubated for 20 to 30 mins by fluorescence microplate reader analysis
T4 sequence (P22894 whole entry): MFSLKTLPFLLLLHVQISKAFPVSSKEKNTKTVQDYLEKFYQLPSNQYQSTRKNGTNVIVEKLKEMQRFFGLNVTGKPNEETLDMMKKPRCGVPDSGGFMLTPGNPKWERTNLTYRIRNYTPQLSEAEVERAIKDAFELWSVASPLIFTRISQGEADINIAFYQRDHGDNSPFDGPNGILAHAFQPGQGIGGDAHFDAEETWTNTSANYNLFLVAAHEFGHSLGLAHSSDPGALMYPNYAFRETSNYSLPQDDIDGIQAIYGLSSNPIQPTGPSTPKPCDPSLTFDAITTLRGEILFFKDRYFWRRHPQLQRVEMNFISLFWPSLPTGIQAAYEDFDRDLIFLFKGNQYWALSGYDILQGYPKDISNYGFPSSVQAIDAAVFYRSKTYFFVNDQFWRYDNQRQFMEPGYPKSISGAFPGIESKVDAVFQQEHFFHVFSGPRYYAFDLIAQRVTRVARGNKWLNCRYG

Interstitial collagenase [8] = molecular target: T5, Interstitial collagenase (Homo sapiens, UniProt P03956); assay: Inhibition of recombinant human MMP1 expressed in Escherichia coli BL21 (DE3) using Mca-Pro-Leu-Gly-Leu-Dpa-Ala-Arg-NH2 as substrate incubated for 20 to 30 mins by fluorescence assay
T5 sequence (P03956 whole entry): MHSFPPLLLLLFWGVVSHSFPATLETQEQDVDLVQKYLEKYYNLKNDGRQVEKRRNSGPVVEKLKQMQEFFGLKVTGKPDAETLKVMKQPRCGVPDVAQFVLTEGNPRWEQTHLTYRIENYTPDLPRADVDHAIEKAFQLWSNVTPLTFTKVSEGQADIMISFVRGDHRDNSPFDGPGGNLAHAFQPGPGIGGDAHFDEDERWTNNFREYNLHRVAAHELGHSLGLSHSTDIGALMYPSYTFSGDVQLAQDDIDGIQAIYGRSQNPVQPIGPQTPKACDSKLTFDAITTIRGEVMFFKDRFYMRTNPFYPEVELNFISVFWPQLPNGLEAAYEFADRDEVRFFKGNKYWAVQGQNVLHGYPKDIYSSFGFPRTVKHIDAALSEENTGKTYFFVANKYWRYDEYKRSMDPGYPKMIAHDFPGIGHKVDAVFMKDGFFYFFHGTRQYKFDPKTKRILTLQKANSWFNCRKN

[9] = Cmax in mouse plasma at 200 mg/kg, po by HPLC analysis; assay type: ADME, organism-based; design: dose 200 mg/kg, route po
[10] = molecular target: T1, Matrix metalloproteinase-9; assay: Inhibition of MMP-9 (unknown origin) using Ac-Pro-Leu-Gly-SCH(CH2 CH(CH3)2)CO-Leu-Gly-OCH2CH3 as substrate preincubated of 0.5 hrs followed by substrate addition and measured after 3 hrs by fluorescence analysis
Interstitial collagenase [11] = molecular target: T5, Interstitial collagenase; assay: Inhibition of MMP-1 (unknown origin)
Matrilysin [12] = molecular target: T3, Matrilysin; assay: Inhibition of MMP-7 (unknown origin)
Neutrophil collagenase [13] = molecular target: T4, Neutrophil collagenase; assay: Inhibition of MMP-8 (unknown origin)
[14] = molecular target: Disintegrin and metalloproteinase domain-containing protein 17 (Homo sapiens, UniProt P78536); assay: Inhibition of TACE (unknown origin)
Sequence of Disintegrin and metalloproteinase domain-containing protein 17 (P78536 whole entry, the tested form may be a part): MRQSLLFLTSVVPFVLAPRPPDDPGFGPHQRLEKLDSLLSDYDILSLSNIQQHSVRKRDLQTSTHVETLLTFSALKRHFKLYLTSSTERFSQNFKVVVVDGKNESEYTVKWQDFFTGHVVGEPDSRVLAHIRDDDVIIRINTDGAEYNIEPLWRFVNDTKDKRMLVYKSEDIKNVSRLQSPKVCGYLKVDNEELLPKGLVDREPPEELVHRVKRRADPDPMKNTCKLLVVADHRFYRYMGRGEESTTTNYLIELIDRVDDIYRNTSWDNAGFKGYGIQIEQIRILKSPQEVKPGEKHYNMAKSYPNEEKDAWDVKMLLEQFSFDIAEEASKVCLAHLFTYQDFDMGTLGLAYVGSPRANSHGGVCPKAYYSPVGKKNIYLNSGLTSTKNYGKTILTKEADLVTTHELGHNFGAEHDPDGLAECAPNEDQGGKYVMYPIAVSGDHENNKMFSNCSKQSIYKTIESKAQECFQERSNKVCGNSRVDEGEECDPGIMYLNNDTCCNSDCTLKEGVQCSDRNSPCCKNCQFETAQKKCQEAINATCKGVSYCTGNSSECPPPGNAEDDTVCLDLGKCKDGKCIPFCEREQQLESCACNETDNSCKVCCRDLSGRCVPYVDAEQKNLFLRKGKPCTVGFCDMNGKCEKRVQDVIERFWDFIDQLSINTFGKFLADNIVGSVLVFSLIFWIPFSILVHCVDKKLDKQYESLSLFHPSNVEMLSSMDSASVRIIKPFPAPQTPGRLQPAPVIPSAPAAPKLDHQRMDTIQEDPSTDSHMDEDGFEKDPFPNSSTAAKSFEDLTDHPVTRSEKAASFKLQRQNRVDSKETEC

[15] = molecular target: T2, 72 kDa type IV collagenase
[16] = molecular target: T2, 72 kDa type IV collagenase; assay: Inhibition of human MMP-2
[17] = molecular target: T1, Matrix metalloproteinase-9; assay: Inhibition of human MMP-9

T1 sequence (P14780 whole entry): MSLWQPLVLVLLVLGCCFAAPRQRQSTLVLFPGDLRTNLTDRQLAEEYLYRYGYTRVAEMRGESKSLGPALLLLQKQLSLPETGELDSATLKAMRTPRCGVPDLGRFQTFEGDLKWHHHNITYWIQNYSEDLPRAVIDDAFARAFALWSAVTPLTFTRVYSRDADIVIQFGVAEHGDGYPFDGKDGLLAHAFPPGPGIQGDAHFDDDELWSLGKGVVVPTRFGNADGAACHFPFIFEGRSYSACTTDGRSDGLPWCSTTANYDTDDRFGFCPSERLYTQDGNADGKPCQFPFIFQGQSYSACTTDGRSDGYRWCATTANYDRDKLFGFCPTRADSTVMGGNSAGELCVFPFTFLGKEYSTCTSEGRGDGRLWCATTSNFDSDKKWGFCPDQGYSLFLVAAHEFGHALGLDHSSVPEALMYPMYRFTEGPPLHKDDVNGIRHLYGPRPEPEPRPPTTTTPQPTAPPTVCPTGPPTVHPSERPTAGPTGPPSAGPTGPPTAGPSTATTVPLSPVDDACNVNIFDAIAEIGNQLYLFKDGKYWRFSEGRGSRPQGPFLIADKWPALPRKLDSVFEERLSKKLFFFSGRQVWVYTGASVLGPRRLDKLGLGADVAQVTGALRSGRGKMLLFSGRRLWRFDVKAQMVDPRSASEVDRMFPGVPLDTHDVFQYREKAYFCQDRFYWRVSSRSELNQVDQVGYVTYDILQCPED

Structure (SMILES): COc1ccc(S(=O)(=O)N(Cc2ccccn2)c2c(C)cc(-c3cccc(C(F)(F)F)c3)cc2C(=O)NO)cc1
- IC50 [1]: 1 nM
- IC50 (Collagenase 3): 2 nM

Structure (SMILES): O=C(O)CC[C@@H](NC(=O)Cc1ccc(Br)cc1)C(=O)NCc1ccc([N+](=O)[O-])cc1
- IC50 [2]: 6400 nM
- IC50 [3]: 4830 nM

Structure (SMILES): CNC(=O)[C@H](Cc1ccccc1)NC(=O)[C@H](CC(C)C)[C@H](CSc1cccs1)C(=O)NO [BATIMASTAT]
- IC50 [1]: 1 nM

Structure (SMILES): Cc1ccc(C#Cc2ccc(S(=O)(=O)N[C@H](C(=O)O)C(C)C)s2)cc1
- Cmax [9]: 284 µM
- IC50 [10]: 14 nM

Structure (SMILES): COc1ccc(S(=O)(=O)N(C)c2c(C)cc(Cc3ccc(CN(C)C)cc3)cc2C(=O)NO)cc1
- IC50 [1]: 3 nM
- IC50 (Interstitial collagenase [11]): 213 nM
- IC50 [14]: 243 nM
- IC50 (Collagenase 3): 11 nM

Structure (SMILES): CN(C)c1ccc(-c2cn(-c3ccc(S(=O)(=O)NC(Cc4ccccc4)C(=O)NO)cc3)nn2)cc1 (configuration not stated)
- IC50 [1]: 1.06 nM
- IC50 [15]: 0.32 nM

Next, values leading:

- IC50 [1]: 3 nM
- IC50 (Collagenase 3): 16 nM
Structure (SMILES): CCCCOc1ccc(S(=O)(=O)C2(C(=O)NO)CCN(Cc3ccccc3)CC2)cc1

- IC50 (Matrilysin [4]): 18 nM
- IC50 (Stromelysin-1): 3.3 nM
- IC50 [5]: 1.4 nM
- IC50 [6]: 0.5 nM
- IC50 (Neutrophil collagenase [7]): 1.9 nM
- IC50 (Interstitial collagenase [8]): 2.4 nM
Structure (SMILES): COc1ccc(S(=O)(=O)N2CCCC(C)(C)CC2C(=O)NO)cc1 (configuration not stated)

- IC50 [1]: 6.8 nM
- IC50 (Interstitial collagenase [11]): 22.2 nM
- IC50 (Matrilysin [12]): > 10000 nM
- IC50 (Neutrophil collagenase [13]): 6.4 nM
Structure (SMILES): COc1ccc(S(=O)(=O)N2CN(Cc3ccccc3)C(=O)CC2C(=O)NO)cc1 (configuration not stated)

- IC50 [16]: 0.7 nM
- IC50 [17]: 0.2 nM
Structure (SMILES): CCCN(C(CSC)C(=O)NO)S(=O)(=O)c1ccc(OC)cc1 (configuration not stated)
